Measured values taken from PubChem BioAssay (NCI).
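Cells were grown in 96-well plates and exposed to each compound for 48 hours at five concentrations; endpoints were interpolated linearly between bracketing concentrations, or set to the highest concentration if not reached. At the GI50, growth is halved. TGI is the concentration that stops growth completely.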

Key:
Assay in all cases: inhibition of tumour cell growth, NCI panel, 48 h
[1] = tested on: 786-0 renal
[2] = tested on: A498 renal
[3] = tested on: A549 NSCLC
[4] = tested on: ACHN renal
[5] = tested on: BT-549 breast
[6] = tested on: CAKI-1 renal
[7] = tested on: CCRF-CEM leukemia
[8] = tested on: COLO 205 colon
[9] = tested on: DU-145 prostate
[10] = tested on: EKVX NSCLC
[11] = tested on: HCC-2998 colon
[12] = tested on: HCT-116 colon
[13] = tested on: HCT-15 colon
[14] = tested on: HL-60(TB) leukemia
[15] = tested on: HOP-62 NSCLC
[16] = tested on: HOP-92 NSCLC
[17] = tested on: HS 578T breast
[18] = tested on: IGROV1 ovarian
[19] = tested on: K-562 leukemia
[20] = tested on: KM12 colon
[21] = tested on: LOX IMVI melanoma
[22] = tested on: M14 melanoma
[23] = tested on: MALME-3M melanoma
[24] = tested on: MCF7 breast
[25] = tested on: MDA-MB-231 breast
[26] = tested on: MDA-MB-435
[27] = tested on: MOLT-4 leukemia
[28] = tested on: NCI-H226 lung
[29] = tested on: NCI-H23 lung
[30] = tested on: NCI-H460 lung
[31] = tested on: NCI-H522 lung
[32] = tested on: NCI/ADR-RES ovarian
[33] = tested on: OVCAR-3 ovarian
[34] = tested on: OVCAR-4 ovarian
[35] = tested on: OVCAR-5 ovarian
[36] = tested on: OVCAR-8 ovarian
[37] = tested on: PC-3 prostate
[38] = tested on: RPMI-8226 leukemia
[39] = tested on: RXF 393 renal
[40] = tested on: SF-268 CNS
[41] = tested on: SF-295 CNS
[42] = tested on: SF-539 CNS
[43] = tested on: SK-MEL-2 melanoma
[44] = tested on: SK-MEL-28 melanoma
[45] = tested on: SK-MEL-5 melanoma
[46] = tested on: SK-OV-3 ovarian
[47] = tested on: SN12C renal
[48] = tested on: SNB-19 CNS
[49] = tested on: SNB-75 CNS
[50] = tested on: SR leukemia
[51] = tested on: SW-620 colon
[52] = tested on: T-47D breast
[53] = tested on: TK-10 renal
[54] = tested on: U251 CNS
[55] = tested on: UACC-62 melanoma
[56] = tested on: UO-31 renal
[57] = tested on: HT29 colon
[58] = tested on: UACC-257 melanoma

With COc1ccc([C@H]2C(=O)N(c3cc(OC)c(OC)c(OC)c3)[C@@H]2c2ccc(OC)c(O)c2)cc1 the GI50 [1] was 0.0324 µM, the TGI [1] was greater than 100 µM and the GI50 [2] was 33.6 µM. The TGI [2] was greater than 100 µM, the GI50 [3] was 0.0401 µM and the TGI [3] was greater than 100 µM. For the same compound, the GI50 [4] was 0.0535 µM, the TGI [4] was 69.9 µM and the GI50 [5] was 0.058 µM. The TGI [5] was 3.83 µM, the GI50 [6] was 0.049 µM and the TGI [6] was greater than 100 µM. For the same compound, the GI50 [7] was 0.0308 µM, the TGI [7] was greater than 100 µM and the GI50 [8] was 0.0303 µM. For the same compound, the TGI [8] was 0.083 µM, the GI50 [9] was 0.0527 µM and the TGI [9] was greater than 100 µM. It also gave a GI50 [10] of 0.0401 µM, a TGI [10] greater than 100 µM and a GI50 [11] of 0.0361 µM. For the same compound, the TGI [11] was 15.5 µM, the GI50 [12] was 0.0292 µM and the TGI [12] was greater than 100 µM. The GI50 [13] was 0.0305 µM, the TGI [13] was greater than 100 µM and the GI50 [14] was 0.0216 µM. It also gave a TGI [14] of 0.0527 µM, a GI50 [15] of 0.0562 µM and a TGI [15] greater than 100 µM. It also gave a GI50 [16] of 1.19 µM, a TGI [16] of 78.3 µM and a GI50 [17] of 0.0422 µM. The TGI [17] was greater than 100 µM, the GI50 [18] was 0.0424 µM and the TGI [18] was greater than 100 µM. For the same compound, the GI50 [19] was 0.0276 µM, the TGI [19] was greater than 100 µM and the GI50 [20] was 0.0445 µM. It also gave a TGI [20] greater than 100 µM, a GI50 [21] of 0.0261 µM and a TGI [21] of 82.1 µM. For the same compound, the GI50 [22] was 0.0341 µM, the TGI [22] was 17.5 µM and the GI50 [23] was 0.0357 µM. For the same compound, the TGI [23] was 34.5 µM, the GI50 [24] was 0.0327 µM and the TGI [24] was greater than 100 µM. It also gave a GI50 [25] of 0.0318 µM, a TGI [25] greater than 100 µM and a GI50 [26] of 0.0297 µM. It also gave a TGI [26] of 1.85 µM, a GI50 [27] of 0.0464 µM and a TGI [27] greater than 100 µM. For the same compound, the GI50 [28] was 0.0274 µM, the TGI [28] was 0.0898 µM and the GI50 [29] was 0.0378 µM. It also gave a TGI [29] of 72.2 µM, a GI50 [30] of 0.0365 µM and a TGI [30] of 24.8 µM. The GI50 [31] was 0.0124 µM, the TGI [31] was 0.0491 µM and the GI50 [32] was 0.0195 µM. It also gave a TGI [32] of 0.0513 µM, a GI50 [33] of 0.0635 µM and a TGI [33] greater than 100 µM. It also gave a GI50 [34] of 17.1 µM, a TGI [34] greater than 100 µM and a GI50 [35] of 0.0459 µM. The TGI [35] was greater than 100 µM, the GI50 [36] was 0.0299 µM and the TGI [36] was greater than 100 µM. For the same compound, the GI50 [37] was 0.05 µM, the TGI [37] was greater than 100 µM and the GI50 [38] was 0.0387 µM. The TGI [38] was 17.3 µM, the GI50 [39] was 0.0467 µM and the TGI [39] was 41.2 µM. For the same compound, the GI50 [40] was 1.41 µM, the TGI [40] was greater than 100 µM and the GI50 [41] was 0.0298 µM. It also gave a TGI [41] of 22.7 µM, a GI50 [42] of 0.0204 µM and a TGI [42] of 0.0537 µM. The GI50 [43] was 0.0502 µM, the TGI [43] was greater than 100 µM and the GI50 [44] was 4.03 µM. It also gave a TGI [44] greater than 100 µM, a GI50 [45] of 0.0202 µM and a TGI [45] of 0.0429 µM. For the same compound, the GI50 [46] was 0.0422 µM, the TGI [46] was greater than 100 µM and the GI50 [47] was 0.0435 µM. For the same compound, the TGI [47] was greater than 100 µM, the GI50 [48] was 0.0454 µM and the TGI [48] was greater than 100 µM. For the same compound, the GI50 [49] was 0.861 µM, the TGI [49] was greater than 100 µM and the GI50 [50] was 0.0258 µM. It also gave a TGI [50] greater than 100 µM, a GI50 [51] of 0.0516 µM and a TGI [51] greater than 100 µM. The GI50 [52] was 27.3 µM, the TGI [52] was greater than 100 µM and the GI50 [53] was 16.2 µM. It also gave a TGI [53] greater than 100 µM, a GI50 [54] of 0.0322 µM and a TGI [54] greater than 100 µM. It also gave a GI50 [55] of 0.0448 µM, a TGI [55] of 26.7 µM and a GI50 [56] of 0.072 µM. It also gave a TGI [56] of 38.2 µM.

In the case of CS(=O)(=O)c1nccc(-c2c(-c3ccc(F)c(OCCc4ccc(F)cc4)c3)nc3sccn23)n1, the GI50 [1] is reported as 14.9 µM, the TGI [1] is reported as 30 µM and the GI50 [2] is reported as 9.97 µM. It also gave a TGI [2] of 21.5 µM, a GI50 [3] of 16.1 µM and a TGI [3] of 30.5 µM. It also gave a GI50 [4] of 2.74 µM, a TGI [4] of 7.33 µM and a GI50 [5] of 14 µM. It also gave a TGI [5] of 27.6 µM, a GI50 [6] of 13.5 µM and a TGI [6] of 26.4 µM. For the same compound, the GI50 [7] was 14.2 µM, the TGI [7] was 33.2 µM and the GI50 [8] was 17.1 µM. It also gave a TGI [8] of 32.5 µM, a GI50 [9] of 2.07 µM and a TGI [9] of 4.32 µM. The GI50 [10] was 12.7 µM, the TGI [10] was 25.4 µM and the GI50 [11] was 3.48 µM. For the same compound, the TGI [11] was 11.3 µM, the GI50 [12] was 12.9 µM and the TGI [12] was 25.5 µM. For the same compound, the GI50 [13] was 12.5 µM, the TGI [13] was 27.8 µM and the GI50 [14] was 3.23 µM. It also gave a TGI [14] of 9.31 µM, a GI50 [15] of 15.3 µM and a TGI [15] of 31.2 µM. It also gave a GI50 [16] of 4.7 µM, a TGI [16] of 18.8 µM and a GI50 [17] of 12.5 µM. It also gave a TGI [17] of 43.8 µM, a GI50 [57] of 15.2 µM and a TGI [57] of 30.6 µM. The GI50 [18] was 5.9 µM, the TGI [18] was 24.6 µM and the GI50 [19] was 15 µM. The TGI [19] was 53.8 µM, the GI50 [20] was 13 µM and the TGI [20] was 28.5 µM. The GI50 [21] was 13 µM, the TGI [21] was 27.6 µM and the GI50 [22] was 16.6 µM. For the same compound, the TGI [22] was 30.9 µM, the GI50 [23] was 17.2 µM and the TGI [23] was 31.7 µM. For the same compound, the GI50 [24] was 1.85 µM, the TGI [24] was 4.31 µM and the GI50 [25] was 17 µM. The TGI [25] was 37.8 µM, the GI50 [26] was 15.9 µM and the TGI [26] was 29.3 µM. The GI50 [27] was 14.3 µM, the TGI [27] was 34.5 µM and the GI50 [28] was 14.5 µM. For the same compound, the TGI [28] was 35 µM, the GI50 [30] was 4.25 µM and the TGI [30] was 16.3 µM. The GI50 [31] was 11.7 µM, the TGI [31] was 28.1 µM and the GI50 [32] was 17.4 µM. For the same compound, the TGI [32] was 39 µM, the GI50 [33] was 7.11 µM and the TGI [33] was 20.8 µM. The GI50 [34] was 14.9 µM, the TGI [34] was 30.4 µM and the GI50 [35] was 15.5 µM. For the same compound, the TGI [35] was 30.4 µM, the GI50 [36] was 15.5 µM and the TGI [36] was 33.2 µM. The GI50 [37] was 10.9 µM, the TGI [37] was 27.2 µM and the GI50 [38] was 4.34 µM. It also gave a TGI [38] of 28.1 µM, a GI50 [39] of 15 µM and a TGI [39] of 29.2 µM. The GI50 [40] was 16.4 µM, the TGI [40] was 36.9 µM and the GI50 [41] was 17 µM. For the same compound, the TGI [41] was 31.6 µM, the GI50 [42] was 15.5 µM and the TGI [42] was 30 µM. It also gave a GI50 [43] of 15.7 µM, a TGI [43] of 30.7 µM and a GI50 [44] of 11.9 µM. The TGI [44] was 24.5 µM, the GI50 [45] was 16.5 µM and the TGI [45] was 30.8 µM. It also gave a GI50 [46] of 13.5 µM, a TGI [46] of 26.5 µM and a GI50 [47] of 13.8 µM. For the same compound, the TGI [47] was 30.6 µM, the GI50 [48] was 15.2 µM and the TGI [48] was 33.9 µM. The GI50 [49] was 11.4 µM, the TGI [49] was 23.6 µM and the GI50 [50] was 12.3 µM. For the same compound, the TGI [50] was 36.9 µM, the GI50 [51] was 15.2 µM and the TGI [51] was 30.6 µM. For the same compound, the GI50 [52] was 2.7 µM, the TGI [52] was 7.57 µM and the GI50 [53] was 15.1 µM. It also gave a TGI [53] of 28.3 µM, a GI50 [54] of 15.9 µM and a TGI [54] of 29.7 µM. It also gave a GI50 [58] of 12.3 µM, a TGI [58] of 25.4 µM and a GI50 [55] of 15.4 µM. For the same compound, the TGI [55] was 35.5 µM, the GI50 [56] was 10.2 µM and the TGI [56] was 21.8 µM.
